Results as given in a compilation of properties of binary mixtures (doi:10.1007/s10953-020-00968-2).

Assay: xn = mol fraction of the nth substance listed
Settings: 101 kPa

O + CS(=O)(=O)[O-].C[N+](C)(CCO)CCO
x2 = 0
Settings	viscosity [mPa·s]
298.15 K	0.877
303.15 K	0.789
313.15 K	0.654

CS(=O)(=O)[O-].C[N+](C)(CCO)CCO + O
viscosity [mPa·s]
Settings	x1 = 0.0989	x1 = 0.1991	x1 = 0.2989	x1 = 0.3971	x1 = 0.4797	x1 = 0.5983	x1 = 0.6984	x1 = 0.7942	x1 = 0.8928	x1 = 1
298.15 K	4.55	–	36.9	77.5	148	288	460	796	1034	1495
303.15 K	3.91	12.42	–	60.6	113	212	–	558	718	1021
308.15 K	3.45	10.56	24.6	48.3	78.7	160	246	403	510	716
313.15 K	3.06	9.06	20.5	39	–	123.5	–	296	374	513
318.15 K	2.74	7.85	–	32.1	–	86.9	142.8	223	279	–
323.15 K	2.51	–	14.75	26.7	–	69.4	–	171	212	–
